Literature values as cited in patent publication US20180235869A1, “METHODS AND COMPOSITIONS FOR SOFT ANTICHOLINERGIC ZWITTERIONS” (Bodor Laboratories, Inc., priority 2015, published 2018).

Settings: solid oral form

Q: What does the source list for `C[N+]1(C)CCC(OC(=O)C(O)(c2ccccc2)C2CCCC2)C1` (stereo not drawn) [glycopyrrolate]?
A: reducing drooling (children): effective in reducing drooling; dropped out of the study because of adverse effects (children, most with cerebral palsy): over 20%; children affected by adverse events (most with cerebral palsy): 69%
